{"source": "patent US20060051526A1", "about": "“Process for producing cellulose acylate film” (Fuji Photo Film Co., Ltd., priority 2002, published 2006)", "assay_type_in_all_cases": "physicochemical", "key": {"[1]": {"test": "Solubility test of the additive alone in dichloromethane/methanol mixed solvent (visual, after 4 days)", "conditions": "for Solubility S0 (solids weight concentration at the dissolution limit): CH2Cl2/CH3OH 87/13", "experimental": "The solubility of the functional additives was measured as follows.\n1. Solutions were prepared by adjusting each concentration in a 50 cc screw cap bottle.\n2. Allowed to stand at room temperature for 4 days. Here, the results of the solubility changed between 1 day and 4 days in some cases, and evaluation of the solubility was carried out after 4 days as a time when equilibrium was reached.\n3. Samples were prepared in the same manner at other temperatures (20° C., 35° C.), and the solubility after allowing to stand for 4 days was visually inspected.\nPredetermined amounts of Example Compounds I-(51) and I-(2) were weighed into a mixed solvent of dichloromethane and methanol, and the solubility was measured by changing the mixing ratio of the organic solvents.\nThe solubility (solids weight concentration at the dissolution limit was calculated as (C1+C2)/2 when the concentration limit at which it could be dissolved was C1 and the concentration limit at which it could not be dissolved was C2) of the retardation control agent in a mixed solvent having an initial methylene chloride/methanol composition ratio of 87/13 was defined as S0, and the solubility of the retardation control agent when the solvent composition changed, during drying, to 74/26 where the methanol wt % was the maximum was defined as S1. The temperature at which the solubility was measured is denoted by the figure in brackets."}, "[2]": {"test": "Measurement of micro heat of solution (multi-purpose calorimeter MPC-110)", "conditions": "for Degree of stabilization: Table 15; for Heat of solution ΔH0: solvent alone, 26.0° C.", "experimental": "(2 Measurement of Micro Heat of Solution)\nThe heat of solution (dissolution enthalpy ΔH) of functional additives was measured as follows, using a multi-purpose calorimeter (MPC-110) manufactured by Tokyo Rikou as a micro heat of solution measuring instrument.\n1. Solvent liquids and concentrated solutions were prepared beforehand in 1 L bottles.\n2. Preparation of ampoule tubes\n(1) Additives (powdered solid) were ground by a mortar and the granules were made uniform.\n(2) A required amount (252 mg) of the additive to be measured was weighed into an ampoule tube for measurement of the micro heat of solution.\n(3) The neck of the ampoule tube was heated sufficiently by a gas burner so as to seal the ampoule tube.\n3. 50 g of the prepared solvent liquid or the concentrated solution was weighed into a measuring vessel. This amount was selected as an amount sufficient to immerse the ampoule tube in the solvent liquid when set in the measuring instrument.\n4. The ampoule tube was set in the measuring instrument, which was equipped with an ampoule sealing mechanism, the measuring vessel was hermetically sealed with the ampoule sealing mechanism after confirming that the ampoule tube was immersed in the solvent liquid, it was placed in a constant temperature bath (26.0° C.), and stirring was started.\n5. After confirming that the measuring instrument placed in the constant temperature bath had reached equilibrium temperature (about 8 to 12 hours) the ampoule tube was broken so as to mix the additive with the solvent liquid or the concentrated solution.\n6. The total amount of heat generated was recorded.\n7. The Joule's heat generated was measured by applying a known voltage to the measurement system for an appropriate time, and the recorded chart area for each measurement cell was calibrated using a known amount of heat.\n8. The heat of solution of the sample was calculated from the Joule's heat and the measured sample area.\nShown in Table 11 are the solvent composition (wt %) and the solids composition (parts by weight) of the mother liquor when measuring the heat of solution, the type of retardation control agent sealed in the ampoule tube (Example Compounds I-(51) or I-(2)), and the results of measurement of the heat of solution.\nThe identification symbols of elements constituting the system are as follows: a denotes triacetylcellulose/plasticizer, b denotes triacetylcellulose, and c denotes plasticizer. For example, 2-87a denotes that the retardation control agent is the Example Compound I-(2), the solvent composition (wt %) is dichloromethane/methanol=87/13, and the solids constituting the system are triacetylcellulose and the plasticizer.\nThe heat of solution ΔH0 denotes the heat of solution (heat absorption) generated when there is no solid in the system (before breaking the ampoule tube) and the retardation control agent is dissolved in a solvent alone. […] The solids concentration of the system when saturation starts is defined as the saturation heat of solution solids concentration (wt %).\nIn all cases, when the solids concentration of the system is increased, the heat of solution either remains unchanged from that at a solids concentration of 0 wt % (the saturation heat of solution solids concentration is 0) or decreases and becomes saturated. […] This degree of stabilization is expressed as ΔH0−ΔHs, which is the decrease in the heat of solution."}, "[3]": {"test": "Solubility test of the additive alone in dichloromethane/methanol mixed solvent (visual, after 4 days)"}, "[4]": {"conditions": "87/13, solids a: triacetylcellulose/plasticizer"}, "[5]": {"conditions": "87/13, solids b: triacetylcellulose only"}, "[6]": {"conditions": "87/13, solids c: plasticizer only"}, "[7]": {"conditions": "initial 87/13 vs 74/26, at any of 25° C., 20° C., 35° C."}}}
{"molecule": "Cc1cccc(Nc2nc(Nc3cccc(C)c3)nc(Nc3cccc(C)c3)n2)c1", "note": "[Example Compound I-(51)]", "values": [{"measurement": "Ratio S1/S0", "setting": "[1]; 20° C., 87/13 vs 74/26", "result": 0.455}, {"measurement": "Solubility S0 (solids weight concentration at the dissolution limit)", "setting": "[1]; 20° C.", "result": 27.5, "unit": "wt %"}, {"measurement": "Ratio S1/S0", "setting": "[1]; 25° C., 87/13 vs 74/26", "result": 0.467}, {"measurement": "Difference S0 − S1", "setting": "[1]; 35° C., 87/13 vs 74/26", "result": 15, "unit": "wt %"}, {"measurement": "Ratio S1/S0", "setting": "[1]; 35° C., 87/13 vs 74/26", "result": 0.455}, {"measurement": "Solubility S1 (solids weight concentration at the dissolution limit)", "setting": "[1]; 35° C., CH2Cl2/CH3OH 74/26", "result": 12.5, "unit": "wt %"}, {"measurement": "Solubility S0 (solids weight concentration at the dissolution limit)", "setting": "[1]; 35° C.", "result": 27.5, "unit": "wt %"}, {"measurement": "Degree of stabilization (ΔH0 − ΔHs)", "setting": "[2]; 50/50, solids a", "result": 0, "unit": "kcal/mol"}, {"measurement": "Saturation heat of solution solids concentration", "setting": "[2]; 50/50, solids a", "result": 0, "unit": "wt %"}, {"measurement": "Heat of solution ΔHs", "setting": "[2]; 50/50, solids a: triacetylcellulose/plasticizer", "result": 4.25, "unit": "kcal/mol"}, {"measurement": "Degree of stabilization (ΔH0 − ΔHs)", "setting": "[2]; 74/26, solids a", "result": 0, "unit": "kcal/mol"}, {"measurement": "Saturation heat of solution solids concentration", "setting": "[2]; 74/26, solids a", "result": 0, "unit": "wt %"}, {"measurement": "Heat of solution ΔHs", "setting": "[2]; 74/26, solids a: triacetylcellulose/plasticizer", "result": 4.56, "unit": "kcal/mol"}, {"measurement": "Degree of stabilization (ΔH0 − ΔHs)", "setting": "[2]; [4]", "result": 0.5, "unit": "kcal/mol"}, {"measurement": "Saturation heat of solution solids concentration", "setting": "[2]; [4]", "result": 5, "unit": "wt %"}, {"measurement": "Heat of solution ΔHs", "setting": "[2]; 87/13, solids a: triacetylcellulose/plasticizer (TPP/BDP)", "result": 4.35, "unit": "kcal/mol"}, {"measurement": "Degree of stabilization (ΔH0 − ΔHs)", "setting": "[2]; [5]", "result": 0.6, "unit": "kcal/mol"}, {"measurement": "Heat of solution ΔHs", "setting": "[2]; [5]", "result": 4.25, "unit": "kcal/mol"}, {"measurement": "Saturation heat of solution solids concentration", "setting": "[2]; [5]", "result": 5, "unit": "wt %"}, {"measurement": "Degree of stabilization (ΔH0 − ΔHs)", "setting": "[2]; [6]", "result": 0, "unit": "kcal/mol"}, {"measurement": "Heat of solution ΔHs", "setting": "[2]; [6]", "result": 4.85, "unit": "kcal/mol"}, {"measurement": "Saturation heat of solution solids concentration", "setting": "[2]; [6]", "result": 0, "unit": "wt %"}, {"measurement": "Degree of stabilization (ΔH0 − ΔHs)", "setting": "[2]; 92/8, solids a", "result": 0.8, "unit": "kcal/mol"}, {"measurement": "Saturation heat of solution solids concentration", "setting": "[2]; 92/8, solids a", "result": 7, "unit": "wt %"}, {"measurement": "Heat of solution ΔHs", "setting": "[2]; 92/8, solids a: triacetylcellulose/plasticizer", "result": 4.23, "unit": "kcal/mol"}, {"measurement": "Degree of stabilization (ΔH0 − ΔHs)", "setting": "[2]; 100/0, solids a", "result": 1.48, "unit": "kcal/mol"}, {"measurement": "Saturation heat of solution solids concentration", "setting": "[2]; 100/0, solids a", "result": 10, "unit": "wt %"}, {"measurement": "Heat of solution ΔHs", "setting": "[2]; 100/0, solids a: triacetylcellulose/plasticizer", "result": 3.79, "unit": "kcal/mol"}, {"measurement": "Degree of stabilization", "setting": "[2]; dope Table 12, solvent composition 87/13", "result": 0.50, "unit": "kcal/mol"}, {"measurement": "Degree of stabilization", "setting": "[2]; dope Table 13, solvent composition 92/8", "result": 0.80, "unit": "kcal/mol"}, {"measurement": "Degree of stabilization", "setting": "[2]; dope Table 14, solvent composition 74/26", "result": 0, "unit": "kcal/mol"}, {"measurement": "Stabilization by solids in the system (in words)", "setting": "[2]; case c: only the plasticizer present in the system", "result": "not stabilized"}, {"measurement": "Heat of solution ΔH0", "setting": "[2]; dichloromethane/methanol 50/50 wt %", "result": 4.25, "unit": "kcal/mol"}, {"measurement": "Heat of solution ΔH0", "setting": "[2]; dichloromethane/methanol 74/26 wt %", "result": 4.56, "unit": "kcal/mol"}, {"measurement": "Heat of solution ΔH0", "setting": "[2]; dichloromethane/methanol 87/13 wt %", "result": 4.85, "unit": "kcal/mol"}, {"measurement": "Heat of solution ΔH0", "setting": "[2]; dichloromethane/methanol 92/8 wt %", "result": 5.03, "unit": "kcal/mol"}, {"measurement": "Heat of solution ΔH0", "setting": "[2]; dichloromethane/methanol 100/0 wt %", "result": 5.27, "unit": "kcal/mol"}, {"measurement": "Difference S0 − S1", "setting": "[3]; 20° C., 87/13 vs 74/26", "result": 15, "unit": "wt %"}, {"measurement": "Difference S0 − S1", "setting": "[3]; 20° C., 92/8 vs 91/9", "result": 0, "unit": "wt %"}, {"measurement": "Ratio S1/S0", "setting": "[3]; 20° C., 92/8 vs 91/9", "result": 1.000}, {"measurement": "Solubility S1 (solids weight concentration at the dissolution limit)", "setting": "[3]; 20° C., CH2Cl2/CH3OH 74/26", "result": 12.5, "unit": "wt %"}, {"measurement": "Solubility S1 (solids weight concentration at the dissolution limit)", "setting": "[3]; 20° C., CH2Cl2/CH3OH 91/9", "result": 27.5, "unit": "wt %"}, {"measurement": "Solubility S0 (solids weight concentration at the dissolution limit)", "setting": "[3]; 20° C., CH2Cl2/CH3OH 92/8", "result": 27.5, "unit": "wt %"}, {"measurement": "Difference S0 − S1", "setting": "[3]; 25° C., 87/13 vs 74/26", "result": 20, "unit": "wt %"}, {"measurement": "Difference S0 − S1", "setting": "[3]; 25° C., 92/8 vs 91/9", "result": 0, "unit": "wt %"}, {"measurement": "Ratio S1/S0", "setting": "[3]; 25° C., 92/8 vs 91/9", "result": 1.000}, {"measurement": "Solubility S1 (solids weight concentration at the dissolution limit)", "setting": "[3]; 25° C., CH2Cl2/CH3OH 74/26", "result": 17.5, "unit": "wt %"}, {"measurement": "Solubility S0 (solids weight concentration at the dissolution limit)", "setting": "[3]; 25° C., CH2Cl2/CH3OH 87/13", "result": 37.5, "unit": "wt %"}, {"measurement": "Solubility S1 (solids weight concentration at the dissolution limit)", "setting": "[3]; 25° C., CH2Cl2/CH3OH 91/9", "result": 37.5, "unit": "wt %"}, {"measurement": "Solubility S0 (solids weight concentration at the dissolution limit)", "setting": "[3]; 25° C., CH2Cl2/CH3OH 92/8", "result": 37.5, "unit": "wt %"}, {"measurement": "Difference S0 − S1", "setting": "[3]; 35° C., 92/8 vs 91/9", "result": 0, "unit": "wt %"}, {"measurement": "Ratio S1/S0", "setting": "[3]; 35° C., 92/8 vs 91/9", "result": 1.000}, {"measurement": "Solubility S1 (solids weight concentration at the dissolution limit)", "setting": "[3]; 35° C., CH2Cl2/CH3OH 91/9", "result": 27.5, "unit": "wt %"}, {"measurement": "Solubility S0 (solids weight concentration at the dissolution limit)", "setting": "[3]; 35° C., CH2Cl2/CH3OH 92/8", "result": 27.5, "unit": "wt %"}, {"measurement": "Difference in solubility S0−S1", "setting": "[3]; [7]", "result": "≥ 15", "unit": "wt %"}, {"measurement": "Ratio S1/S0 of the solubility", "setting": "[3]; [7]", "result": "less than 0.5"}]}
